Reference: patent US20170281611A1, “QUINOLINES AND THEIR USE FOR TREATING ENDOPLASMIC RETICULUM STRESS-CAUSED DISEASES” (EIGER BIOPHARMACEUTICALS, INC., priority 2014, published 2017)
Read-outs that look alike come from different tables or passages of the source. Values belong to the molecule of their own block, whether it stands above or below them.

How the values were obtained:
[1] = Pharmacokinetics in Beagle dogs (Table 5); format: in vivo; conditions: dog, PO (10 mg/kg) vs IV (1 mg/kg), based on AUC0-t
Description: For pharmacokinetic evaluation, 3 male Beagle dogs were intravenously (IV) dosed (1 mg/kg body weight) and 3 male Beagle dogs were orally (PO) dosed (10 mg/kg body weight) with a test compound. Blood (approximately 1.0 mL) was collected via femoral vein into tubes containing K3EDTA anticoagulant at 0, 0.017, 0.083, 0.5, 1, 2, 4, 6, 8, and 24 hours post-dosing. Plasma samples were analyzed by LC-MS/MS. The analytical results were confirmed using quality control samples for intra-assay variation. The accuracy of >66% of the quality control samples was between 80-120% of the known value(s). A standard set of pharmacokinetic parameters were generated from concentration data including Area Under the Curve (AUC0-t and AUC0-inf), elimination half-lives, clearances, volume of distribution and bioavailabilities (based on AUC0-t), maximum plasma concentration (C0; Cmax), and time to reach maximum plasma concentration (Tmax).

[2] = test system: SERCA; experiment: Ca-ATPase assay, microsomal preparations from HEK 293 cells; format: biochemical, human
Description: A Ca-ATPase assay was performed using microsomal preparations from HEK 293 cells at a series of calcium concentrations corresponding to the physiological range, relative to controls. The ATP hydrolysis rate was measured over a range of calcium concentrations in the presence of test compounds using an NADH-linked, enzyme-coupled ATPase assay adapted for 96-well microplates, with Vmax determined by fitting the ATPase calcium-dependence to the Hill function. […] CaCl2 was added to set free [Ca^2+] to the specific values.

[3] = test system: CSM14.1 cells; experiment: ER stress cell survival assay (thapsigargin, […]-GLO); format: cell-based; conditions: dose-response
Description: CSM14.1 cells were maintained in Complete Medium at 32° C.; wherein the Complete Medium contained Dulbecco's modified eagle medium (DMEM) with 10% fetal bovine serum (FSB), 1% L-glutamine, 100 IU/mL penicillin, and 100 μg/mL streptomycin. The cells were recovered from cultures by trypsinization and then seeded in 384 well plates (Greiner #781098) at a concentration of 1,000 cells/well in 20 μL of DMEM Assay Medium, wherein the DMEM Assay Medium contained 2% FBS, 100 IU/mL penicillin, and 100 μg/mL streptomycin. Seeding was performed using a MultiDrop Combi reagent broadcaster. The plates were incubated overnight at 32° C.
A test compound was prepared by 2-fold serial dilution in 100% DMSO using a BIOMEK® 2000 liquid handler (Beckman Coulter). A dose-response curve containing 10 concentrations of the test compound was obtained. Using a BIOMEK® FX liquid handler (Beckman Coulter), 2.5 μL of the test compound was transferred from the 100% DMSO serial dilution plate to an intermediate plate containing 47.5 μL of DMEM Assay Medium containing 2% FBS, 100 IU/mL penicillin, and 100 μg/mL streptomycin and mixed. To reduce or eliminate the interference from the compound's precipitation, 6 μL of the diluted compound was immediately transferred to the assay plate to achieve a high compound concentration of 100 μM in 99% DMEM Assay Medium and 1% DMSO. After the assay plates were incubated for 2 hrs, 4 μL of 112.5 μM thapsigargin (TG) (DMSO stock diluted into Assay TC Medium) was dispensed into each testing well with a MultiDrop Combi reagent broadcaster for a final concentration of about 15 μM TG. The tissue culture media (4 μL) containing vehicle only was transferred manually to each control cell using a 16 channel electronic pipette. […] High luminescence indicates cell survival.
Alternatively, a test compound was tested at a single compound concentration (e.g., 2 μM) to determine the effect of the compound on cell survival in comparison with vehicle.

[4] = test system: SERCA; experiment: Activation of SERCA, increase in Vmax (SR type not given); format: biochemical
[5] = biological target: T1, SERCA, cardiac SR; experiment: Activation of SERCA, NADH-linked enzyme-coupled ATPase assay, cardiac SR; format: biochemical; conditions: read-out: CSR EC50
T1 construct: 2 mg or 7 mg of SR vesicles (optimized for skeletal or cardiac SR, respectively); from tissue; host or cells: cardiac sarcoplasmic reticulum vesicles
T1 sequence (P16615 1-997 isoform P16615-2): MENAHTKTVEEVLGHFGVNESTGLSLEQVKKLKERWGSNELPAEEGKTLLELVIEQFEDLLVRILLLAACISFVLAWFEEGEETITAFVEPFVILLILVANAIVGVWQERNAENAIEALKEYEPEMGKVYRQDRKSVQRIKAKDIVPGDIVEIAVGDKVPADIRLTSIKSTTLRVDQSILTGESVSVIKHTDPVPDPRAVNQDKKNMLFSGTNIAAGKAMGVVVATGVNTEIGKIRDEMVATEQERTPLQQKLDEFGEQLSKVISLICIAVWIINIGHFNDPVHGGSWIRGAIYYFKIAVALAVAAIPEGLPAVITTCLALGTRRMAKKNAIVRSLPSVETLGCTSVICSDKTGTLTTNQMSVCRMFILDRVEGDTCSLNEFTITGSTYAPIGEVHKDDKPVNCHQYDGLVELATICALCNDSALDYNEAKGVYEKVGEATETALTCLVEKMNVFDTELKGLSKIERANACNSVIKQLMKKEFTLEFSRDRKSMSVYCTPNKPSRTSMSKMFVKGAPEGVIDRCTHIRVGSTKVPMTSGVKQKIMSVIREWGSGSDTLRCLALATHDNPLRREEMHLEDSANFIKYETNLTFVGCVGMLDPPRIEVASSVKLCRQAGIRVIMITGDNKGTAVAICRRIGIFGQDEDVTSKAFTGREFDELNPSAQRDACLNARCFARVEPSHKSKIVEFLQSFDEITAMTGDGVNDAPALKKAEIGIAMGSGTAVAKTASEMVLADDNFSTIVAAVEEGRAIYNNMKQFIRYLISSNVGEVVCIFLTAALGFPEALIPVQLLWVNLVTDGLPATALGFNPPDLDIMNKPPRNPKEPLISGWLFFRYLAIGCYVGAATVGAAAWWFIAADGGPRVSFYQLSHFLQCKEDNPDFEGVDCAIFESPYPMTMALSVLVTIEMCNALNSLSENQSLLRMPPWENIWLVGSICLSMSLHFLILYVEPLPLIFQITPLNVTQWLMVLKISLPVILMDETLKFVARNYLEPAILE
Description: Test compounds were characterized over a range of concentrations using an NADH-linked, enzyme-coupled ATPase assay. Each well contained 2 mg or 7 mg of SR vesicles (optimized for skeletal or cardiac SR, respectively), 50 mM MOPS (pH 7.0), 100 mM KCl, 5 mM MgCl2, 1 mM EGTA, 0.2 mM NADH, 1 mM phosphoenol pyruvate, 5 IU pyruvate kinase, 5 IU lactate dehydrogenase, and 3.5 mg/mL A23187 (a calcium ionophore), and CaCl2 was added to set free [Ca2+] to the specific values. The assay was started upon addition of ATP at a final concentration of 5 mM, and read in a SpectraMax Plus microplate spectrophotometer and the ATPase activities were fitted using the Hill function.

[6] = test system: BT474 Cells; experiment: In vitro anticancer activity, monolayers (2D) and spheroids (3D), BT474; format: cell-based; conditions: Homo sapiens
Description: (§1) The anticancer activity of a test compound was determined in vitro using mammalian tumor cells that grew as monolayers and spheroids. Spheroids represent the three-dimensional growth and organization of solid tumors, and thus are an intermediate model between monolayers of cells in culture and tumors in vivo. The cancer cell line tested was a breast cancer cell line, BT474. Normal breast tissue cells (MCF10A) were used as a control. The viability/proliferation of the cells were measured using […]-GLO® reagent.

[7] = test system: MCF10A Cells; experiment: In vitro viability, monolayers (2D) and spheroids (3D), normal breast tissue cells; format: cell-based; conditions: Homo sapiens, MCF-10A
Description: as §1

[8] = Pharmacokinetics in Sprague Dawley rats (Table 4); format: in vivo; conditions: rat; for MRT inf: read-out: MRT0-∞
Description: Compound D1 was formulated in 0.3% DMA/1% SOLUTOL®/98.7% saline. Compound D6 was formulated in 0.5% DMA/1% SOLUTOL®/94.5% 0.01N HCl in saline/4% NaOH (pH 4-5).

[9] = test system: 6-OHDA lesioned Wistar rats; experiment: Rat unilateral 6-OHDA model of Parkinson's disease, stepping test; format: in vivo; conditions: D11, 10 mg/kg IP once daily for 15 days, t test
Description: Fifty adult male Wistar rats were used. The rats from different groups (G1 to G5) were randomized. At the beginning of the study, the rats were about 5 weeks old and naive to previous administration of any drug.
A stereotaxic injection of 6-OHDA (G2 to G5) or saline (G1: sham group) was performed to induce a unilateral dopaminergic lesion on day 0 (D0). Surgery was performed on D0 under ketamine (50 mg/kg) and xylazine (10 mg/kg). The rats of G2 to G5 received a unilateral injection of 6-OHDA (6 μL) in the left substantia nigra pars compacta. Jouve et al., J. Neurosci. 2010, 30, 9919-9928. The rats of the G1 sham group were injected with saline. During surgery, local analgesia was achieved using subcutaneous injections of lidocaine. At the end of surgery, the rats were treated with buprenorphine (0.05 mg/kg, S.C.).
The stepping test was performed after IT test, both before the 6-OHDA lesion induction on D0 and on D11. Around D−6, the stepping test was performed eight consecutive times for the right paw of each animal to obtain baseline values. On D11, the stepping test was performed one hour after the rats were dosed. Each rat was hold by an experimenter and only one of the two forelimbs was left free to move above a plane surface and the other was held with the paw touching the table. The rats were then to be moved slowly forward by the experimenter. The number of adjusting steps was countered for the right paw. Olsson et al., J. Neurosci. 1995, 15, 3863-3875.
L-DOPA and benserazide (a peripheric DOPA decarboxylase inhibitor) were prepared together as a single solution containing 0.9% NaCl and 0.1% ascorbic acid.
All the dosings were given via the IP route, once daily, Sunday excluded.

[10] = Sprague Dawley, in vivo, IV (2 mg/kg)
[11] = Sprague Dawley, in vivo, PO (10 mg/kg)

F [1]: 1.4%
Compound: Cc1ccc2cccc(NC(=O)c3cccc(OC(C)C)c3)c2n1 [Compound A13, 3-Isopropoxy-N-(2-methylquinolin-8-yl)benzamide]
Vmax of a SERCA [2]: significantly increased

Compound: O=C(C1CC1)N1CCN(c2ccnc3cc(Cl)ccc23)CC1 [Compound D7]
EC50 [3]: < 20 µM

Compound: Cc1ccc2cccc(NC(=O)c3ccc(O)cc3)c2n1 [Compound J2, 4-Hydroxy-N-(2-methylquinolin-8-yl)benzamide]
EC50 [3]: < 20 µM | Increase in Vmax at 10 μM [4]: A′ (A′ represents an increase greater than 50%)

EC50 [5]: < 20 µM
Compound: Cc1ccc2cccc(NC(=O)c3ccc(C(C)(C)C)cc3)c2n1 [Compound A4, 4-(tert-Butyl)-N-(2-methylquinolin-8-yl)benzamide]

IC50 ([6]; BT-474, monolayers (2D), read-out: IC50 (2D)): 10 µM | IC50 ([6]; BT-474, spheroids (3D), read-out: IC50 (3D)): 10 µM
Compound: CCN(CC)CCNC(=O)c1c(C)[nH]c(/C=C2\C(=O)Nc3ccc(F)cc32)c1C [Sutent, reference compound]
IC50 ([7]; monolayers (2D), read-out: IC50 (2D)): 3 µM | IC50 ([7]; spheroids (3D), read-out: IC50 (3D)): 7 µM

AUC(0-inf) [8, 10]: 1840 ± 209 ng·h/mL | AUC(0-t) [8, 10]: 1790 ± 187 ng·h/mL | Cmax [8, 10]: 7.59 ± 0.55 µM | Tmax [8, 10]: 0.017 h | clearance [8, 10]: 18.3 mL/min/kg | half-life [8, 10]: 1.77 ± 0.33 h | MRT inf [8, 10]: 1.57 ± 0.22 h | Vd ([8]; Sprague Dawley, in vivo, IV (2 mg/kg), read-out: Vz): 2.76 ± 0.22 L/kg | AUC(0-inf) [8, 11]: 8060 ± 3220 ng·h/mL | AUC(0-t) [8, 11]: 7890 ± 3320 ng·h/mL | Cmax [8, 11]: 7.33 ± 12.5 µM | Tmax [8, 11]: 0.42 ± 0.14 h | half-life [8, 11]: 1.76 ± 0.66 h | MRT inf [8, 11]: 2.88 ± 1.21 h | F ([8]; PO (10 mg/kg) vs IV (2 mg/kg)): 88%
Compound: O=C(c1ccccc1F)N1CCN(c2ccnc3cc(Cl)ccc23)CC1 [Compound D2, (4-(7-Chloroquinolin-4-yl)piperazin-1-yl)(2-fluorophenyl)methanone]
EC50 [3]: < 20 µM

Compound: Cc1ccc2cccc(NC(=O)c3ccc(Br)s3)c2n1 [Compound B1, 5-Bromo-N-(2-methylquinolin-8-yl)thiophene-2-carboxamide]
number of adjusting steps [9]: statistically significant increase

Compound: Cc1ccc(C(=O)N2CCN(c3ccnc4cc(Cl)ccc34)CC2)cc1 [Compound D4, (4-(7-Chloroquinolin-4-yl)piperazin-1-yl)(p-tolyl)methanone]
EC50 [3]: 20 to 100 µM
